# How the values were obtained:
# N2 WT C. elegans = test: IsoK-lysyl-lactam protein adduct quantification by LC/MS/MS; format: in vivo; conditions: increasing concentrations of SA until day 15, versus vehicle control; p<0.01
# From the text: The mechanism by which IsoKs inactivate protein targets involves covalent adduction of the epsilon amine group on the side chains of lysine residues within target proteins (FIG. 2A). The initial product of this covalent adduction is a lactam ring structure composed of the lysyl side chain and the isoketal. SA's amine group is much more reactive toward IsoKs and preserves protein function by more rapidly forming an adduct with the IsoK, preventing the adduction of lysyl side chains. If this mechanism is operative in vivo when C. elegans are treated with SA, a dose-dependent reduction in IsoK-lysyl-lactam adducts should be observed. To test this directly, WT N2 worms were treated with vehicle or increasing concentrations of SA until day 15, then collected for IsoK-lysyl-lactam adduct quantification by liquid chromatography tandem mass spectrometry (LC/MS/MS) using a heavy isotope-labeled internal standard for quantification.
# Worms grown on FUDR containing SA-OP50-seeded NGM plates were collected at Day 15 adult stage by washing in M9 medium, followed by an ice-cold 60% w/v sucrose gradient to segregate clean bacteria-free adult worms from bacterial debris. Clean worms were transferred to Eppendorf tubes and flash-frozen in liquid nitrogen and thawed at 37° C. 3×. […] Levels of IsoK-lysyl-lactam adduct was measured as previously described. […]
# MnSOD = test: Western blot of acetyl-Lys 122 MnSOD; format: in vivo, C. elegans; conditions: 500 μM SA, day 15; WT N2 compared to VC199 treated with the same dose; P>0.05
# From the text: One of the major stimuli for activation of sirtuins is oxidative stress. […] Indeed, the mitochondrial antioxidant manganese superoxide dismutase (MnSOD) has been identified as one of the major protein targets that is deacetylated by sirtuin isoforms, with deacetylation enhancing the enzymatic activity of MnSOD [60]. If SA indeed preserves SIR-2.1 enzymatic function in vivo, the present inventors hypothesized that SA treatment would dose-dependently decrease biomarkers of oxidant injury in a SIR-2.1-dependent manner. To quantify oxidant injury, the present inventors measured F3-isoprostanes (F3-IsoPs). F3-IsoPs are the products of free radical-mediated peroxidation of eicosapentaenoic acid (EPA), and are known to be a highly sensitive and accurate marker of oxidative damage in Caenorhabditis elegans. F3—IsoPs were collected from WT N2 and from VC199 (SIR-2.1 deficient strain) nematodes grown on OP50-NGM agar plates containing increasing concentrations of SA from Day 1 of adulthood until collection at Day 15. […] To further characterize SA's ability to preserve SIR-2.1 function, the present inventors assessed acetylation of MnSOD at Lys 122.
# Day 15 adult worms grown on FUDR containing SA-OP50-seeded NGM plates were harvested in M9 medium, followed by floatation on an ice-cold 60% w/v sucrose gradient to segregate clean bacteria-free adult worms from bacterial debris. […]
# VC199 SIR-2.1 mutants = test: mtDNA copy number by qPCR, VC199; format: in vivo, C. elegans; conditions: with age or with SA treatment
# From the text: Mitochondria lie at the center of aging biology, playing crucial roles in energy production, carbon substrate metabolism, apoptosis regulation, and redox balance and signaling. Since sirtuins play a major role in regulating mitochondrial function, the present inventors next wanted to investigate whether SA was exerting any of its effects via protection of mitochondrial processes. To investigate SA's effects on mitochondrial respiration, the present inventors administered SA to WT N2 (FIG. 5A) and non-functional SIR-2.1 mutant worms (FIG. 5B) and measured oxygen consumption rate (OCR) in whole worms over several days. […] The present inventors also examined the effect of SA treatment on mitochondrial DNA (mtDNA) integrity.
# Relative mitochondrial and nuclear copy number were measured by quantitative, real-time PCR [90]. Primers for NADH dehydrogenase unit 1 (nd1) and a 164 bp region of the cox-4 gene were used in determination of mtDNA copy number. The nd1 forward primer 5′-[…]-3′ and reverse primer 5′-[…]-3′. Cox-4 forward primer 5′-GCCGACTGGAAGAACTTGTC-3′ and reverse primer 5′-[…]-3′. […] Amplified products were detected with SYBR Green (iQ™ SYBR® Green Supermix, Bio-Rad) and fluorescent signal intensities were determined by CFX96 Touch™ Real-Time PCR Detection System (Bio-Rad) by software CFX Manager™ (version 3.1). […]
smiles,measurement,setting,value
"NCc1ccccc1O [SA, salicylamine]",IsoK-lysyl-lactam adduct levels,N2 WT C. elegans,"significant, dose-dependent reduction"
same,acetyl-Lys 122 in MnSOD,MnSOD,trend toward lower acetyl-Lys 122
same,mtDNA copy number relative to nuclear DNA,VC199 SIR-2.1 mutants,no significant difference
